This passage reports TGI results from PubChem BioAssay (NCI).

As usually defined, the TGI is the concentration at which net growth stops. A lower TGI goes with greater sensitivity of the cells.

SMILES strings stand for the structures.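 Where inhibition never reached the appropriate level, the endpoint shown equals the highest concentration tested. Otherwise, values were interpolated linearly from a five-concentration, 48-hour dose response in 96-well plates. TGI is the concentration that stops growth completely.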

Among the test systems are TK-10 renal; OVCAR-4 ovarian; A549 NSCLC; SF-539 CNS; M14 melanoma; SK-MEL-5 melanoma; RXF 393 renal; OVCAR-5 ovarian; NCI-H460 lung; MDA-MB-435; K-562 leukemia; CCRF-CEM leukemia; RPMI-8226 leukemia.
What all share (test): DTP human tumour cell line panel, 48 h

In the case of `O=C(c1cc(Cl)cc(Cl)c1)N1CCN(C(=O)c2cc(Cl)cc(Cl)c2)C1=S`, the concentration for total growth inhibition (TGI) with TK-10 renal turned out to be 23.2 µM; in the assay with OVCAR-4 ovarian, 38.4 µM; with A549 NSCLC, 44.6 µM; in the assay with SF-539 CNS, 22.7 µM; in the assay on M14 melanoma, 27.3 µM; in the assay on SK-MEL-5 melanoma, 33.7 µM. The concentration for total growth inhibition (TGI) in the assay with RXF 393 renal was 26.4 µM; with OVCAR-5 ovarian, 42.2 µM; with NCI-H460 lung, 37.2 µM; with MDA-MB-435 it was 29.9 µM; in the assay on K-562 leukemia, above 50.8 µM; in the assay on CCRF-CEM leukemia, 21.4 µM.

In the case of `CC(=O)Nc1ccc(-c2nc3ccccc3s2)cc1`, the total growth inhibition concentration (TGI) is above 100 µM with TK-10 renal; above 100 µM with RPMI-8226 leukemia; above 100 µM in the assay on OVCAR-4 ovarian; 67.1 µM in the assay on SF-539 CNS; above 100 µM in the assay on M14 melanoma; above 100 µM in the assay on SK-MEL-5 melanoma. For the same compound, the TGI was 74.4 µM in the assay on RXF 393 renal; above 100 µM in the assay on NCI-H460 lung; above 100 µM in the assay with MDA-MB-435; 77 µM with K-562 leukemia; above 100 µM with CCRF-CEM leukemia.

For `Cn1c(N)c2c3c(sc2nc1=O)CCCC3`, the total growth inhibition concentration (TGI) in the assay with TK-10 renal, with RPMI-8226 leukemia, in the assay with OVCAR-4 ovarian, in the assay with SK-MEL-5 melanoma, in the assay on RXF 393 renal and with OVCAR-5 ovarian was above 75 µM in each case. Further, the total growth inhibition concentration (TGI) in the assay on NCI-H460 lung, with MDA-MB-435 and in the assay with K-562 leukemia was above 75 µM each time.

Regarding `COc1ccc(OC)c(N2C(=O)CSC2c2cc(OC)c(OC)c(OC)c2)c1` (configuration not stated), the total growth inhibition concentration (TGI) in the assay with TK-10 renal, with RPMI-8226 leukemia, in the assay with OVCAR-4 ovarian, in the assay with A549 NSCLC, in the assay with SF-539 CNS and in the assay with M14 melanoma was above 100 µM each time. Moreover, the TGI in the assay on SK-MEL-5 melanoma was above 100 µM; in the assay on OVCAR-5 ovarian, above 100 µM; with NCI-H460 lung it was above 100 µM; with MDA-MB-435, 86 µM; in the assay with K-562 leukemia, above 100 µM; in the assay on CCRF-CEM leukemia, above 100 µM.

Turning to `Cc1ccsc1/C=N/Nc1ccc2ccccc2n1`, the TGI was 66.2 µM with TK-10 renal; above 100 µM in the assay on RPMI-8226 leukemia; above 100 µM with OVCAR-4 ovarian; above 100 µM in the assay with A549 NSCLC; above 100 µM in the assay on M14 melanoma; 13.2 µM in the assay on SK-MEL-5 melanoma. The total growth inhibition concentration (TGI) is 89.8 µM with RXF 393 renal; above 100 µM in the assay on OVCAR-5 ovarian; above 100 µM with MDA-MB-435; above 100 µM in the assay on K-562 leukemia; above 100 µM in the assay with CCRF-CEM leukemia.

On to `CC12CC(C#N)(C#N)C(C#N)(CO1)C(=N)O2` (configuration not stated), for which the concentration for total growth inhibition (TGI) in the assay on TK-10 renal, in the assay on OVCAR-4 ovarian, with A549 NSCLC, in the assay with SF-539 CNS, with M14 melanoma and with SK-MEL-5 melanoma was above 100 µM each time. Besides, the TGI in the assay on RXF 393 renal is above 100 µM; with OVCAR-5 ovarian, above 100 µM; in the assay with NCI-H460 lung, above 100 µM; in the assay on MDA-MB-435, above 100 µM; with K-562 leukemia, above 100 µM; in the assay with CCRF-CEM leukemia it was 69.1 µM.

With `CN1C(=O)C(CC=O)(C(C)(C)C)c2ccccc21` (configuration not stated), the TGI in the assay with RPMI-8226 leukemia, with OVCAR-4 ovarian, with A549 NSCLC, in the assay with M14 melanoma, with SK-MEL-5 melanoma and in the assay on RXF 393 renal was above 100 µM in each case. Also, the total growth inhibition concentration (TGI) with OVCAR-5 ovarian, in the assay with NCI-H460 lung, in the assay with MDA-MB-435, in the assay on K-562 leukemia and in the assay with CCRF-CEM leukemia was above 100 µM in each case.

Regarding `C[C@@H]1C[C@](O)([C@@H](C)Cl)C(=O)O[C@@H]2CCN3CC=C(COC(=O)[C@]1(C)O)[C@H]23`, the TGI in the assay on TK-10 renal, in the assay on RPMI-8226 leukemia, in the assay with OVCAR-4 ovarian, in the assay with A549 NSCLC, in the assay on SF-539 CNS and in the assay with M14 melanoma was above 100 µM each time. Also, the TGI in the assay on SK-MEL-5 melanoma was above 100 µM; in the assay with OVCAR-5 ovarian it was above 100 µM; in the assay on NCI-H460 lung, above 10 µM; in the assay with MDA-MB-435, above 100 µM; with K-562 leukemia, above 100 µM; with CCRF-CEM leukemia, above 10 µM.

`Cc1ccc(C(=O)N/N=C(\N=Nc2ccccc2[N+](=O)[O-])c2ccc(N(C)C)cc2)cc1`: the TGI in the assay with TK-10 renal, in the assay on RPMI-8226 leukemia, in the assay with OVCAR-4 ovarian, in the assay on A549 NSCLC, in the assay on SF-539 CNS and with M14 melanoma was above 100 µM each time. The total growth inhibition concentration (TGI) with SK-MEL-5 melanoma, in the assay with OVCAR-5 ovarian, in the assay with NCI-H460 lung, with MDA-MB-435, in the assay on K-562 leukemia and in the assay on CCRF-CEM leukemia was above 100 µM each time.

As for `CC(C)(C)[Si](C)(C)OC1/C(=C/C#N)C(n2ccc(=O)[nH]c2=O)OC1CO` (configuration not stated), the total growth inhibition concentration (TGI) with TK-10 renal, in the assay on OVCAR-4 ovarian, in the assay on A549 NSCLC, in the assay on SF-539 CNS, in the assay with M14 melanoma and in the assay with SK-MEL-5 melanoma was above 100 µM each time. For the same compound, the TGI with RXF 393 renal, with OVCAR-5 ovarian, in the assay with NCI-H460 lung, with MDA-MB-435 and in the assay on K-562 leukemia was above 100 µM in each case.

`CCc1nc2ccc(N=NN(C)C)cc2[nH]1`: the TGI in the assay with TK-10 renal, in the assay with RPMI-8226 leukemia, in the assay on OVCAR-4 ovarian, with A549 NSCLC, with M14 melanoma and with SK-MEL-5 melanoma was above 100 µM each time. The concentration for total growth inhibition (TGI) with RXF 393 renal, in the assay with OVCAR-5 ovarian, in the assay with NCI-H460 lung, with MDA-MB-435, in the assay on K-562 leukemia and with CCRF-CEM leukemia was above 100 µM throughout.

As for `CCOC(=O)c1ccc(C(=O)/C(C#N)=C2\CCCN2C)[nH]1`, the TGI in the assay on TK-10 renal, in the assay on RPMI-8226 leukemia, in the assay with OVCAR-4 ovarian, in the assay with A549 NSCLC, with M14 melanoma and with SK-MEL-5 melanoma was above 100 µM in each case. Moreover, the TGI with RXF 393 renal, with OVCAR-5 ovarian, with NCI-H460 lung, with MDA-MB-435, in the assay with K-562 leukemia and with CCRF-CEM leukemia was above 100 µM throughout.
